Source: patent US8062639B2 (priority 2008, dated 2011)

Legend:
[1] = molecular target: T1, soluble dog Na/K ATPase (Canis lupus familiaris, UniProt P50997); assay: Na/K ATPase activity by pNPP conversion; assay type: biochemical; settings: rate at 400 nm over 30 min, various concentrations (FIG. 2)
T1 construct: soluble Dog kidney Na/K ATPase; purchased SigmaAldrich; host or cells: dog kidney (the tissue is named only in the general description)

[2] = system: conscious rats; assay type: in vivo, rat; settings: for death after hemorrhage plus infusion / restoration of plasma/blood volume after hemorrhage: 20 ml/kg hemorrhage plus infusion of 2 mg/ml (5 ml/hr) (FIG. 3); for change in plasma volume, infusion alone: infusion of 2 mg/ml (5 ml/hr), no hemorrhage, 8 rats/group (FIG. 3)

SMILES | inhibition of Na/K ATPase (conversion of pNPP to pNP) [1] | death after hemorrhage plus infusion [2] | restoration of plasma/blood volume after hemorrhage [2] | change in plasma volume, infusion alone [2]
C[C@@H]1O[C@@H](O[C@H]2C[C@@H](O)[C@]3(CO)[C@H]4[C@H](O)C[C@]5(C)[C@@H](C6=CC(=O)OC6)CC[C@]5(O)[C@@H]4CC[C@]3(O)C2)[C@H](O)[C@H](O)[C@H]1O [ouabain] | inhibits Na/K ATPase in a dose-response manner | leads to death | prevents restoration | no effect on plasma volume
C[C@]12CC[C@H](O)C[C@H]1CC[C@@H]1[C@@H]2CC[C@]2(C)[C@@H](c3ccc(=O)oc3)CC[C@]12O [Bufalin] |  | leads to death | prevents restoration | no effect on plasma volume
C[C@]12CC[C@H](O)C[C@@]1(O)CC[C@@H]1[C@@H]2CC[C@]2(C)[C@@H](c3ccc(=O)oc3)C[C@H]3O[C@]132 [marinobufogenin] | inhibits Na/K ATPase in a dose-response manner |  | did not have this effect | 
